Reference: paper PMC4198181, “Gold(I) Complexes of 9-Deazahypoxanthine as Selective Antitumor and Anti-Inflammatory Agents” (PLoS ONE, 2014)

Test system: polymorphonuclear cells infiltration in hind paw tissue
Assay: Ex vivo histological evaluation of hind paw tissue (HE staining, PMN infiltration)
Format: in vivo, Wistar-SPF rats
Conditions: 6 h after carrageenan, Indomethacin 5 mg/kg
Experimental: The carrageenan-induced hind paw edema model was used for the determination of anti-inflammatory activity. Animals were i.p. pretreated with complexes 2, 4, and 5 (the dosages of the individual complexes were adjusted to contain the same amount of gold as in 10 mg/kg dose of Auranofin), Indomethacin (5 mg/kg), or 25% DMSO (v/v in water) 30 min prior to the injection of 1% λ-carrageenan solution (50 µL) into the plantar side of right hind paws of the rats. The paw volume was measured immediately after the carrageenan injection (this value was set-up as baseline value for the hind paw volume) and during the next 6 h after the administration of the edematogenic agent using a plethysmometer (model 7159, Ugo Basile, Varese, Italy). The degree of swelling was evaluated as a percentage of the change of the volume of the right hind paw after the carrageenan treatment from the baseline volume. A non-steroidal anti-inflammatory drug Indomethacin was used as a positive control and the obtained data were also compared with the previously reported profile of antiedematous activity for Auranofin [38]. After 6 h, the animals were sacrificed and the edematous feet were dissected, the tissue from the plantar parts was extracted, fixed and stained by a standard hematoxylin/eosin (HE) staining for cytological evaluation of polymorphonuclear cells infiltration.
To assess the tissue consequences connected with the reduction of inflammation caused by the tested compounds after the intraplantar injection of carrageenan, the histopathological observations were made on the tissue sections obtained from the laboratory animals after the plethysmometric experiments were finished. All animals were sacrificed by cervical dislocation, and immediately after that, the tissue samples were taken from the plantar area of hind paws. The histopathological changes in tissues, stained by the standard HE staining (see Figure 10), were evaluated by the presence of the inflammation infiltrate, which contained mainly neutrophils (polymorphonuclear cells - PMN).

Question: `COc1ccc2c(c1)c(CC(=O)O)c(C)n2C(=O)c1ccc(Cl)cc1` [Indomethacin, reference compound] was tested. Which “PMN (neutrophil) infiltrate in hind paw tissue sections” value did it give?
Answer: The value was “mainly scarce and diffuse”.
